Assay results taken from patent US7267977B2, “Peripheral-type benzodiazepine receptor: a tool for detection, diagnosis, prognosis, and treatment of cancer” (Georgetown University, priority 1998, dated 2007).

Key:
PBR [1] = target: T1, PBR (Homo sapiens, UniProt P30536); test: Fluorescent microscopy with compound 4 fluorescent PBR ligand, cultured cells; type: cell-based; parameters: endogenous in cells; host or cells: MDA-231, MCF-7 and MCF-7ADR (ADR) human breast cancer cells, whole cells or isolated nuclei; conditions: MDA-231 cells, 100 uM competitor, 1 uM compound 4, 45 min at 37° C.
Protocol: Fluorescent Microscopy with the compound 4 fluorescent PBR Ligand—MA-10, MDA-231, MCF-7, and ADR cells were grown on glass coverslips as previously described [Kozikowski et al. (1997) J. Med. Chem. 40: 2435-2439]. Cells were then washed twice with sterile PBS and incubated for 45 min with 1 uM compound 4, a fluorescent derivative of the PBR ligand FGIN-27, with or without a competing PBR ligand, FGIN-27, at a concentration of 100 uM. After the incubation period, the cells were washed with PBS and examined by fluorescent microscopy using an Olympus BH-2 fluorescence microscope.
Target sequence in this assay (P30536 2-169): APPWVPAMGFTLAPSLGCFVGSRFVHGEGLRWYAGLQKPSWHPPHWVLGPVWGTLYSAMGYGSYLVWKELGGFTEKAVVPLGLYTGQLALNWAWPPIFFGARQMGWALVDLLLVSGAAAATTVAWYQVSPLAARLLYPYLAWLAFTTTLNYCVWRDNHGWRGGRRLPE

MCF-7 nuclei = test: Nuclear uptake of 3H-cholesterol, MCF-7 nuclei; type: biochemical, human; conditions: increasing concentrations of PK11195
Protocol: (§1) Nuclear Uptake of ^3H-Cholesterol—Nuclei were isolated from MDA-231, MCF-7, and as described by Elango et al (1997). […] Samples were then centrifuged at 500×g for 30 min and pellets were washed in […] ice-cold PBS. After a second centrifugation at 500×g for 30 min, 200 ul 1.0 N NaOH was then added to the pellets and incubated overnight at 37° C. After incubation, 200 ul 1.0 N HCl was added and samples were vigorously vortexed. 3 ml scintillation cocktail (Eco-Lite) was then added prior to reading radioactivity on a Wallac 1409 Liquid Scintillation Counter.

MDA-231 cells = test: BrdU cell proliferation ELISA; type: cell-based, human; conditions: for stimulation of MDA-231 cell proliferation: 48 h
Protocol: BrdU Cell Proliferation Assays and BrdU-labeling of MDA-231 Cells—MDA-231 cells were plated on 96-well plates (Corning) at a concentration of approximately 10,000 cells/well (24 h incubation) or approximately 5,000 cells/well (48 h incubation) in DMEM supplemented with 0.1% FBS.

[2] = target: T2, peripheral-type benzodiazepine receptor (PBR) (Homo sapiens, UniProt P30536); test: [3H]PK11195 binding to isolated nuclei (Scatchard analysis); conditions: pmol/mg nuclear protein
T2 construct: Cells were scraped from 150 mm culture dishes into 5 ml phosphate buffered saline (PBS); endogenous in cells; host or cells: MDA-231, MCF-7 and MCF-7ADR (ADR) human breast cancer cells, whole cells or isolated nuclei
T2 sequence (P30536 2-169): as above
Protocol: (§2) Radioligand Binding Assays—Cells were scraped from 150 mm culture dishes into 5 ml phosphate buffered saline (PBS), dispersed by trituration, and centrifuged at 500×g for 15 min. Cell pellets were resuspended in PBS and assayed for protein concentration. […] Scatchard plots were analyzed by the LIGAND program [Munson, (1980) Anal. Biochem. 107:220]. […] IC50 estimation was performed using the LIGAND program (Munson, 1980, supra).
as §1

[3] = target: T2, peripheral-type benzodiazepine receptor (PBR); test: [3H]PK11195 radioligand binding to whole cells (Scatchard analysis, competition); conditions: 50 μg protein, [3H]PK11195, Scatchard plot
Protocol: as §2

PBR [4] = target: T1, PBR; test: Compound 4 fluorescence labeling of human breast tissue biopsies; parameters: Paraffin embedded sections of normal breast tissue; from tissue; host or cells: human breast biopsies (normal tissue and aggressive carcinoma), Lombardi Cancer Center; conditions: 1000 fold excess of competitive ligand
Target sequence in this assay (P30536 whole entry): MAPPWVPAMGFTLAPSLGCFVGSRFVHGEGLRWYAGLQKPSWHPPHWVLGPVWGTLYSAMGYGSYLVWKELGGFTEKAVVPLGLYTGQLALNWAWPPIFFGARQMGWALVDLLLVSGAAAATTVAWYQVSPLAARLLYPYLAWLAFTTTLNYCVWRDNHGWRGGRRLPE
Protocol: PBR ligand binding activity was determined using the fluorescent PBR derivative compound 4 [Munson, 1980, supra]
In some samples, the hematoxylin counterstaining was omitted in order to confirm the PBR positive staining of the nuclei of breast carcinoma cells (b). […] In this experiment an FITC-coupled secondary antibody was used to localize the immunoreactive PBR protein. […] PBR ligand binding activity was also determined in the aggressive breast carcinomas using the fluorescent PBR derivative compound 4 (FIG. 10e).

MDA-231 nuclei = test: Nuclear uptake of 3H-cholesterol, MDA-231 nuclei; type: biochemical, human; conditions: -8 to -6M PK11195, MDA-231 nuclei, 60 min at 37° C.
Protocol: as §1

SMILES | displacement of compound 4 fluorescent binding (PBR [1]) | response of cholesterol uptake to PK11195 dose-response (MCF-7 nuclei) | effect on MDA-231 cell proliferation (MDA-231 cells; 24 h, −10 and −9M) | stimulation of MDA-231 cell proliferation (MDA-231 cells; any of the micromolar concentrations) | stimulation of MDA-231 cell proliferation (MDA-231 cells; −8M) [%] | Emax (MDA-231 cells; Homo sapiens, MDA-MB-231, 24 h, −5M, read-out: maximal stimulation of MDA-231 cell proliferation) [%] | toxicity to MDA-231 cells (MDA-231 cells; −4M) | Bmax ([2]; nuclei isolated from MCF-7 cells) [pmol/mg protein] | Bmax ([2]; nuclei isolated from MDA-231 cells) [pmol/mg protein] | Bmax ([3]; ADR (MCF-7ADR) cells) [pmol/mg protein] | Bmax ([3]; MDA-231 cells) [pmol/mg protein] | displacement of compound 4 fluorescence (PBR [4]; aggressive breast carcinoma biopsies) | displacement of compound 4 fluorescence (PBR [4]; normal human breast tissue) | decrease in the amount of cholesterol uptake (MDA-231 nuclei) [%]
CCCCCCN(CCCCCC)C(=O)Cc1c(-c2ccc(F)cc2)[nH]c2ccccc12 [FGIN-27] | displacement of fluorescent binding | – | – | – | – | – | – | – | – | – | – | – | – | –
CCC(C)N(C)C(=O)c1cc2ccccc2c(-c2ccccc2Cl)n1 (centres unmarked) [PK11195] | – | failed to respond | no effect | no stimulation | 40 | 40 | toxic concentration | 0.4±0.2 | 6.9±4.8 | 1.3±0.23 | 8.7±1.4 | completely displaced the fluorescence | completely displaced the fluorescence | ~20
